Test results from US20200299155A1, “BIOCIDAL COMPOSITIONS INCLUDING A PHOSPHONIUM QUATERNARY CATIONIC SURFACTANT AND METHODS FOR USING SAME” (Rhodia Operations, priority 2019, published 2020).

Columns and labels:
[1] = Physical compatibility studies (mixtures in vials, visual); type: physicochemical; details: for compatibility with VDPA copolymer: in the presence of VDPA copolymer
Experimental: A first set of samples was made by combining Didecyldimethylammonium chloride (DDAC) Ammonium Quaternary Cationic Surfactant, and Tributyl Tetradecyl Phosphonium Chloride (TTPC). These ingredients were combined in a 20 mL borosilicate vial with a plastic cap to a total volume of 10 mLs so that the final concentration of DDAC was 5 wt. % active ingredient and the final concentration of TTPC was 1 wt. % active ingredient. The total volume was achieved by mixing with tap water (WTW). Samples were mixed, capped, and shaken vigorously and allowed to sit at room temperature for up to 24 hours. […] All weight percent values in the examples are wt. % active ingredient.
Another test sample consisted of 20 wt. % THPS, 2 wt. % VDPA copolymer biopenetrant, 4 wt. % DDAC, 4 wt. % TTPC, and 35 wt. % Ethylene Glycol Monobutyl Ether (EGMBE, which was used as a mutual solvent) (wt. % active ingredients) and was mixed as were the samples of Example 1 and brought to a total volume of 13.9 mLs with tap water (WTW).
(§1) Two additional samples were made. One was TTPC aqueous solution (50 wt. % a.i.) which was TTPC alone with the balance water (labelled TTPC). The other sample was made of 95 wt. % TTPC aqueous solution (50 wt. % a.i.) combined with a 5 wt. % VDPA copolymer aqueous solution (50 wt. % a.i.)(labelled TTPC+ESL). Thus, the final concentration on an active ingredient basis was 47.5% wt. % TTPC and 2.5 wt. % VDPA copolymer with the balance water. This comparison was made to determine the compatibility of the mixture without mutual solvent.

Pseudomonas aeruginosa = assay: Biocidal efficacy study, Modified Robbins Device culture/biofilm; type: cell-based; details: 100 ppm dosed, FIG. 4
Experimental: To test biocidal efficacy of TTPC in the presence of VDPA anionic copolymer two additional samples were made. One was 50 wt. % TTPC (a.i.) alone with the balance water (labelled TTPC). The other was TTPC combined with VDPA copolymer with the balance water (labelled TTPC A) which was 47.5% TTPC (a.i.) and 2.5% VDPA copolymer biopenetrant. A standard biofilm was grown with Pseudomonas aeruginosa, a known biofilm former and General Heterotrophic Bacteria (GHB), and treated with either the TTPC or TTPC A Series samples. Pseudomonas aeruginosa was cultured in a media of tryptone soy broth and grown at room temperature with gentle stirring. This culture solution was slowly passed through a Modified Robbins Device (MRD) from Tyler Research for approximately 6 weeks to establish a robust biofilm. Once the film was established, 100 ppm of TTPC Series or TTPC A Series was dosed to the biofilms and the efficacy of the biocide on the microorganisms was measured as shown in FIG. 4.

[2] = Storage stability of TTPC+ESL mixture at different temperatures; type: physicochemical; details: −25° C.
Description: as §1
However, the sample was frozen at −25° C. TTPC was also frozen at −25 C.

Molecule | compatibility with VDPA copolymer [1] | efficacy against planktonic bacteria (Pseudomonas aeruginosa) | state of sample at low temperature [2] | physical compatibility / appearance in tap water ([1]; balance tap water (WTW), room temperature, up to 24 hours) | solubility in water ([1]; water)
alkyldimethylbenzylammonium chloride [ADBAC] | will precipitate | – | – | – | –
CCCCCCCCCCCCCC[P+](CCCC)(CCCC)CCCC.Cl [TTPC, tributyl-tetradecylphosphonium chloride] | – | effective | frozen | – | –
CCCCCCCCCC[N+](C)(C)CCCCCCCCCC.[Cl-] [DDAC, Didecyldimethylammonium chloride] | will precipitate | – | – | some cloudiness | sparingly soluble in water
